1 compound from patent US20100144708A1, “HETEROCYCLIC COMPOUNDS CONTAINING NITROGEN ATOMS OR PHARMACEUTICALLY ACCEPTABLE SALTS THEREOF, PROCESS FOR THE PREPARATION THEREOF AND PHARMACEUTICAL COMPOSITION COMPRISING THE SAME FOR TREATMENT OF CANCER” (Korea Research Instititute of Bioscience and Biotechnology, priority 2006, published 2010) can be followed below.

Assay [1] has as its system PC-3 (prostate cancer). Nature of the assay: Test for inhibition of tumor cell growth (SRB), PC-3. Type of assay: cell-based, Human. Particulars: Homo sapiens; 48 hours, SRB staining; read-out: GI50 PC-3 (prostate ancer). In short, it runs like this:
(§1)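 Cells seeded in RPMI 1640 with 5% FBS, exposed to compound (final […], units as printed) for 48 hours at 37° C with 5% CO2, including a time-zero plate. TCA-fixed, SRB-stained, absorbance at 540 nm as percent of control; GI50 is the 50% growth-inhibition concentration.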
(In SRB staining, fixed cells bind dye roughly in proportion to their protein.)

The subject of assay [2] is MBA-MB-231 (breast cancer). Nature of the assay: Test for inhibition of tumor cell growth (SRB), MBA-MB-231. Type of assay: cell-based, Human. Particulars: Homo sapiens; 48 hours, SRB staining. In outline:
as §1

Assay [3] concerns ACHN (kidney cancer). The assay can be described thus: Test for inhibition of tumor cell growth (SRB), ACHN. Type of assay: cell-based, Human. Particulars: Homo sapiens, ACHN; 48 hours, SRB staining. In short, it runs like this:
as §1

For assay [4], the system named is NUGC-3 (gastric cancer). The assay can be described thus: Test for inhibition of tumor cell growth (SRB), NUGC-3. Type of assay: cell-based, Human. Particulars: Homo sapiens, NUGC-3; 48 hours, SRB staining. In short, it runs like this:
as §1

Assay [5] deals with human prostate cancer cell line PC-3. The assay can be described thus: Test for tumor growth inhibition in animal model (PC-3 xenograft). It is filed as in vivo. Particulars: 30 mg/kg daily, 20 times, intraperitoneal; final day (day 21); vs vehicle-control; p<0.001. The protocol: Female S.P.F BALB/c nude mice (7-week-old) were grafted with 3×10^7 cells/□ of human prostate cancer cell line PC-3, and then intraperitoneally administered with the compound prepared in Example 55 at a daily dosage of 30 mg/kg 20 times. A positive control group was intraperitoneally administered with adriamycin at a daily dosage of 2 mg/kg 10 times once every two days.
The changes in their body weight are shown in FIG. 1, the changes in tumor size are shown in FIG. 2, and the tumor weights measured on the final day (day 21) are shown in FIG. 3.

Assay [6] concerns human prostate cancer cell line, PC-3 cells. The assay can be described thus: Western blot analysis in PC-3 cells. It is filed as cell-based. Particulars: 0, 2, and 5 uM, 24 hours. The protocol:
4×10^6 of human prostate cancer cell line, PC-3 cells were cultured in 100 mm diameter-culture dishes with RPMI media containing 5% FBS for one day, and then treated with the compound prepared in Example 55 at concentrations of 0, 2, and 5 uM for 24 hours, respectively. Then, the cells were carefully washed with 10[…] of PBS twice, and 1 ml of PBS containing protease inhibitor cocktail (Roche, complete™-mini) (1 tablet/50[…] PBS) was added to the each dish. The cells were collected and sonicated. The sonicated cells were centrifuged using a microcentrifuge at 12000 rpm for 20 minutes, and the supernatant was collected. Then, the amount of protein was determined using a Bradford dye reagent (Bio-Rad), and after running 20[…] of the protein on an SDS-PAGE gel, the protein band was transferred to a nitrocellulose membrane (Bio-Rad). Subsequently, the amounts of each protein were analyzed using primary antibodies and secondary antibodies-HRP (horseradish peroxidase) that are specific to each protein to be tested (Amersham or Bio-Rad), and an ECL chemiluminescence reagent (Amersham).

Assay [7] has the same test system. Nature of the assay: Flow cytometric analysis of apoptosis (PI staining) with NAC. It is filed as cell-based. Particulars: 5 uM NAC for 3 hours, then compound 5 uM for 24 hours; compared to cells treated with only the compound. The procedure:
5×10^5 of human prostate cancer cell line, PC-3 cells were cultured in 60 mm diameter-culture dishes with RPMI 1640 media containing 5% FBS in an incubator supplied with 5% CO2 at 37° C. for one day, and then treated with 5 uM NAC (N-acetylcysteine, Sigma) for 3 hours. Then, the cells were treated with the compound prepared in Example 55 at concentrations of 5 uM, cultured for 24 hours. Subsequently, the cells were treated with 0.1% trypsin and detached. The detached cells were transferred to a 15[…] conical tube, and centrifuged at 200×g for 5 minutes to precipitate the cells. Then, the supernatant was removed. 0.5[…] of PBS solution containing 0.1 mg/□ RNase A was added thereto, so as to resuspend the cells. The cells were treated with a PI (propidium iodide) DNA staining solution in a concentration of 50[…]/□ to stain the DNA in the cells for 30 or more minutes. The PI-stained cells were e xcited using a flow cytometer (Becton Dickinson) at 488 nm by a laser beam, and an emission wavelength of 588 nm was represented by a histogram, and then quantitatively analyzed to determine the amount of DNA in the cells.
Background: In flow cytometry, cells or beads pass a laser one at a time.

As to `CCCCCCCCCCCC(=O)N1CC[N+](CC)(Cc2cccc(C)c2)CC1` [Example 55, 4-dodecanoyl-1-ethyl-1-(3-methylbenzyl)piperazin-1-ium bromide], the GI50 – broadly, the concentration at which growth is held to half of that of the control – in assay [1] was 0.41 µg/mL. In assay [2], this compound registered a GI50 of 4.37 µg/mL. For the same compound, in assay [3], the GI50 was 3.84 µg/mL. The compound further displayed a GI50 in assay [4] of 0.9 µg/mL. Besides, in assay [5], the “effect of inhibiting tumor growth” value was 84.0% and the “reduction of tumor weight” value was found to be 79.5%. Further, in assay [6], the “amount of Bcl2” value is “down-regulated”, the “amount of RhoB” value is on record as “increased”, the amount of c-abl entry is “increased” and the “amount of p53” value was “sharply increased”. Moreover, the “amount of phosphorylated p53” value in assay [6] is “sharply increased”. Further, in assay [7], the degree of apoptosis result is listed as “greatly decreased”.
